Consider 18 compounds from patent US20260327214A1, “1,3,4-OXADIAZOLE DERIVATIVE COMPOUNDS AS HISTONE DEACETYLASE 6 INHIBITOR, AND USES THEREOF” (CHONG KUN DANG PHARMACEUTICAL CORP., priority 2022, published 2026).

In one assay the target is T1, human recombinant HDAC6 (Homo sapiens, UniProt Q9UBN7).
T1 construct: purchased Calbiochem 382180
T1 sequence (Q9UBN7 1-1215): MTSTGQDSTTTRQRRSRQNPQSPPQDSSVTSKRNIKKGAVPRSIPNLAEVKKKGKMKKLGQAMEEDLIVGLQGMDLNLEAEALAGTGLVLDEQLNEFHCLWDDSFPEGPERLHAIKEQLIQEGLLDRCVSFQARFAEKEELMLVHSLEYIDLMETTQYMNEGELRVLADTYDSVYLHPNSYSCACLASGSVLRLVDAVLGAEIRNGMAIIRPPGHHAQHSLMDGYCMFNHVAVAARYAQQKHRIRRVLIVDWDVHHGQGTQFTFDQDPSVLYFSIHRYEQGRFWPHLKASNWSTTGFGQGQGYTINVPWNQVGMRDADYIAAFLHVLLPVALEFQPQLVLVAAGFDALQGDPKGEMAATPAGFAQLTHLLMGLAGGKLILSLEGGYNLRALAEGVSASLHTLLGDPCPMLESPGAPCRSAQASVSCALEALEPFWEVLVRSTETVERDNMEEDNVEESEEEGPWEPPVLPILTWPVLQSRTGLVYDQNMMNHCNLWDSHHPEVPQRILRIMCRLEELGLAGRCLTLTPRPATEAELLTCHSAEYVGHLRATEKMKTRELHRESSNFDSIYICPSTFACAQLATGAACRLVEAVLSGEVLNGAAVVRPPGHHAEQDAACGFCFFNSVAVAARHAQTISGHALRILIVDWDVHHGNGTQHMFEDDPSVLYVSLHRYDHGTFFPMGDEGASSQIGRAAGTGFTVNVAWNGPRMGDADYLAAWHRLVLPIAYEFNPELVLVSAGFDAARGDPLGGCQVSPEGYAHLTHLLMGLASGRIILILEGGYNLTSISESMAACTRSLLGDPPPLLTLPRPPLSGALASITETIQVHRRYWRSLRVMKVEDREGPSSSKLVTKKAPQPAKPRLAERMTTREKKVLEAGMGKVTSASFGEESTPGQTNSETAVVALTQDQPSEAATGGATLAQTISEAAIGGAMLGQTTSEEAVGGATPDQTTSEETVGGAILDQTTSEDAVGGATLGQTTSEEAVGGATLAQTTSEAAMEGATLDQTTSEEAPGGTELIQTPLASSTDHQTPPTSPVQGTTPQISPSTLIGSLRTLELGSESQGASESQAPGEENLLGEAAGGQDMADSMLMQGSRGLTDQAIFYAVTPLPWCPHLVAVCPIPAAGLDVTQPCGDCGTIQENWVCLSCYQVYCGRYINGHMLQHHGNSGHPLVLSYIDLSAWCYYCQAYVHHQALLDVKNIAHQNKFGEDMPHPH
The experiment in a line: HDAC6 enzyme activity inhibition test (HDAC Fluorometric Drug Discovery Kit). Type of assay: biochemical. The note with it: for HDAC6 selectivity (fold): HDAC6 over HDAC1; for IC50: human recombinant HDAC6, same protocol as HDAC1. As to the method: (§1) The following experiment was conducted to confirm the HDAC6 selectivity of the compound represented by Chemical Formula I of the present invention through the HDAC1 and HDAC6 enzyme activity inhibition test.
(§2) HDAC enzyme activity was measured using HDAC Fluorometric Drug Discovery Kit (BML-AK511, 516) manufactured by Enzo Life Science. For the HDAC1 enzyme activity test, human recombinant HDAC1 (BML-SE456) was used as an enzyme source and Fluor de Lys-®-″SIRT1 (BNL-KI177) was used as a substrate. The 5-fold diluted compound was dispensed in a 96-well plate, 0.3 μg of enzyme and 10 μM substrate were added to each well and reacted at 30° C. for 60 minutes, and Fluor de Lys® Developer II(BML-KI176) was added and reacted for 30 minutes to complete the reaction. Then, the fluorescence value (Ex 360, Em 460) was measured using a multiplate reader (Flexstation 3, Molecular Device). The HDAC6 enzyme was tested using the same protocol as the HDAC1 enzyme activity test method employing human recombinant HDAC6 (382180) from Calbiochem. For the final result, each […] value was calculated using the GraphPad Prism 4.0 program.

A further assay concerns the target T2, human recombinant HDAC1 (Homo sapiens, UniProt Q13547).
T2 construct: purchased Enzo Life Science BML-SE456
The experiment in a line: HDAC1 enzyme activity inhibition test (HDAC Fluorometric Drug Discovery Kit). The following applies: 30° C., 60 minutes, 10 μM substrate. Type of assay: biochemical. As to the method:
as §1, §2

T2 sequence (Q13547 whole entry): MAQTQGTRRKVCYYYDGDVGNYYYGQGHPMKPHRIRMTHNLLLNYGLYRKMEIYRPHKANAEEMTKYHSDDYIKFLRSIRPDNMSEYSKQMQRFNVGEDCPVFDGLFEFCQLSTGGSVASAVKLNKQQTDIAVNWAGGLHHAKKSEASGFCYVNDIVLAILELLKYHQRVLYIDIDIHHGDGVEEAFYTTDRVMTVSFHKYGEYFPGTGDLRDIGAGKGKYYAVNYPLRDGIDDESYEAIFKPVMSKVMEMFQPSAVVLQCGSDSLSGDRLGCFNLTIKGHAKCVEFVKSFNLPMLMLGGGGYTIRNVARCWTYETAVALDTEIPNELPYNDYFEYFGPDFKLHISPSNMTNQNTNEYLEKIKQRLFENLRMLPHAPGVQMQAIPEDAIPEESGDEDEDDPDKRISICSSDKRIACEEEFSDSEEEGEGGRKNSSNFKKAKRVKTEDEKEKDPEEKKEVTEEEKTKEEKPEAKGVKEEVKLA

Turning to `O=c1oc(-c2ccccc2)nn1Cc1ccc(-c2nnc(C(F)F)o2)cn1` [Compound 1, 3-((5-(5-(difluoromethyl)-1,3,4-oxadiazol-2-yl)pyridin-2-yl)methyl)-5-phenyl-1,3,4-oxadiazol-2 (3H)-one], on human recombinant HDAC6, the “HDAC6 selectivity (fold)” value worked out at 416 fold and the IC50 stood at 120 nM. On human recombinant HDAC1, the IC50 is greater than 50000 nM.
Take `O=c1oc(-c2ccc(CN3CCCC3)cc2)nn1Cc1ccc(-c2nnc(C(F)F)o2)cn1` [Compound 2, 3-((5-(5-(difluoromethyl)-1,3,4-oxadiazol-2-yl)pyridin-2-yl)methyl)-5-(4-(pyrrolidin-1-ylmethyl)phenyl)-1,3,4-oxadiazol-2(3H)-one]: at human recombinant HDAC6, the “HDAC6 selectivity (fold)” value stood at 506 fold and the concentration for half-maximal inhibition (IC50) was 98.8 nM. The 50% inhibitory concentration (IC50) on human recombinant HDAC1 was greater than 50000 nM.
The matching figures for `O=c1oc(-c2ccc3[nH]ccc3c2)nn1Cc1ccc(-c2nnc(C(F)F)o2)cn1` [Compound 3, 3-[[5-[5-(difluoromethyl)-1,3,4-oxadiazol-2-yl]-2-pyridyl]methyl]-5-(1H-indol-5-yl)-1,3,4-oxadiazol-2-one]: 3497 fold, 14.3 nM and greater than 50000 nM.
For `CC1CCN(Cc2ccc(-c3nn(Cc4ccc(-c5nnc(C(F)F)o5)cn4)c(=O)o3)c(F)c2)CC1` [Compound 4, 3-[[5-[5-(difluoromethyl)-1,3,4-oxadiazol-2-yl]-2-pyridyl]methyl]-5-[2-fluoro-4-[(4-methyl-1-piperidyl)methyl]phenyl]-1,3,4-oxadiazol-2-one], the “HDAC6 selectivity (fold)” value at human recombinant HDAC6 came out at 595 fold. The figures for the half-maximal inhibitory concentration (IC50) at human recombinant HDAC6 and at human recombinant HDAC1 were 84.1 nM and greater than 50000 nM, respectively.
Take `O=c1oc(-c2cccs2)nn1Cc1ccc(-c2nnc(C(F)F)o2)cn1` [Compound 5, 3-[[5-[5-(difluoromethyl)-1,3,4-oxadiazol-2-yl]-2-pyridyl]methyl]-5-(2-thienyl)-1,3,4-oxadiazol-2-one]: the “HDAC6 selectivity (fold)” value at human recombinant HDAC6 was determined as 589 fold. Further, the figures for the IC50 on human recombinant HDAC6 and on human recombinant HDAC1 were 84.9 nM and greater than 50000 nM, respectively.
As to `CC(C)N1CCN(c2cccc(-c3nn(Cc4ccc(-c5nnc(C(F)F)o5)cn4)c(=O)o3)n2)CC1` [Compound 6, 3-[[5-[5-(difluoromethyl)-1,3,4-oxadiazol-2-yl]-2-pyridyl]methyl]-5-[6-(4-isopropylpiperazin-1-yl)-2-pyridyl]-1,3,4-oxadiazol-2-one], on human recombinant HDAC6, the “HDAC6 selectivity (fold)” value was 1078 fold and the IC50 amounted to 46.4 nM. Besides, the 50% inhibitory concentration (IC50) at human recombinant HDAC1 is greater than 50000 nM.
For `O=c1oc(-c2cccc(N3CCN(C4COC4)CC3)n2)nn1Cc1ccc(-c2nnc(C(F)F)o2)cn1` [Compound 7, 3-[[5-[5-(difluoromethyl)-1,3,4-oxadiazol-2-yl]-2-pyridyl]methyl]-5-[6-[4-(oxetane-3-yl)piperazin-1-yl]-2-pyridyl]-1,3,4-oxadiazol-2-one] the same measures were 600 fold, 83.3 nM and greater than 50000 nM.
As to `CN1CCC(c2cccc(-c3nn(Cc4ccc(-c5nnc(C(F)F)o5)cn4)c(=O)o3)c2)CC1` [Compound 8, 3-[[5-[5-(difluoromethyl)-1,3,4-oxadiazol-2-yl]-2-pyridyl]methyl]-5-[3-(1-methyl-4-piperidyl)phenyl]-1,3,4-oxadiazol-2-one], the “HDAC6 selectivity (fold)” value on human recombinant HDAC6 was found to be 546 fold. Further, the IC50 on human recombinant HDAC6 was 91.6 nM; at human recombinant HDAC1, greater than 50000 nM.
For `O=c1oc(-c2cccc(C3CCN(C4COC4)CC3)c2)nn1Cc1ccc(-c2nnc(C(F)F)o2)cn1` [Compound 9, 3-[[5-[5-(difluoromethyl)-1,3,4-oxadiazol-2-yl]-2-pyridyl]methyl]-5-[3-[1-(oxetane-3-yl)-4-piperidyl]phenyl]-1,3,4-oxadiazol-2-one], at human recombinant HDAC6, the “HDAC6 selectivity (fold)” value was found to be 585 fold and the half-maximal inhibitory concentration (IC50) was determined as 85.5 nM. The IC50 on human recombinant HDAC1 is greater than 50000 nM.
For the compound `CC1CC(N2CCC(c3cccc(-c4nn(Cc5ccc(-c6nnc(C(F)F)o6)cn5)c(=O)o4)c3)CC2)C1` (stereo not drawn) [Compound 10, 3-[[5-[5-(difluoromethyl)-1,3,4-oxadiazol-2-yl]-2-pyridyl]methyl]-5-[3-[1-(3-methylcyclobutyl)-4-piperidyl]phenyl]-1,3,4-oxadiazol-2-one], on human recombinant HDAC6, the “HDAC6 selectivity (fold)” value is listed as 666 fold and the half-inhibitory concentration (IC50) amounted to 75.1 nM. Besides, at human recombinant HDAC1, the concentration for half-maximal inhibition (IC50) was greater than 50000 nM.
With `CN1CCc2ccc(-c3nn(Cc4ccc(-c5nnc(C(F)F)o5)cn4)c(=O)o3)cc2C1` [Compound 12, 3-[[5-[5-(difluoromethyl)-1,3,4-oxadiazol-2-yl]-2-pyridyl]methyl]-5-(2-methyl-3,4-dihydro-1H-isoquinolin-7-yl)-1,3,4-oxadiazol-2-one], on human recombinant HDAC6, the “HDAC6 selectivity (fold)” value is 607 fold and the IC50 came to 82.4 nM. For the same compound, on human recombinant HDAC1, the IC50 is greater than 50000 nM.
On to `CC(C)N1CCc2ccc(-c3nn(Cc4ccc(-c5nnc(C(F)F)o5)cn4)c(=O)o3)cc2C1` [Compound 13, 3-[[5-[5-(difluoromethyl)-1,3,4-oxadiazol-2-yl]-2-pyridyl]methyl]-5-(2-isopropyl-3,4-dihydro-1H-isoquinolin-7-yl)-1,3,4-oxadiazol-2-one], for which, at human recombinant HDAC6, the “HDAC6 selectivity (fold)” value is 475 fold and the IC50 amounted to 105 nM. In addition, the IC50 at human recombinant HDAC1 was greater than 50000 nM.
For the compound `O=c1oc(-c2ccc3c(c2)CN(C2CCC2)CC3)nn1Cc1ccc(-c2nnc(C(F)F)o2)cn1` [Compound 14, 5-(2-cyclobutyl-3,4-dihydro-1H-isoquinolin-7-yl)-3-[[5-[5-(difluoromethyl)-1,3,4-oxadiazol-2-yl]-2-pyridyl]methyl]-1,3,4-oxadiazol-2-one], on human recombinant HDAC6, the “HDAC6 selectivity (fold)” value is on record as 478 fold. In addition, the IC50 on human recombinant HDAC6 was 105 nM; at human recombinant HDAC1, greater than 50000 nM.
Turning to `O=c1oc(-c2ccccc2F)nn1Cc1ccc(-c2nnc(C(F)F)o2)cn1` [Compound 15, 3-[[5-[5-(difluoromethyl)-1,3,4-oxadiazol-2-yl]-2-pyridyl]methyl]-5-(2-fluorophenyl)-1,3,4-oxadiazol-2-one], on human recombinant HDAC6, the “HDAC6 selectivity (fold)” value was found to be 524 fold and the half-inhibitory concentration (IC50) was found to be 95.5 nM. Also, the IC50 at human recombinant HDAC1 is greater than 50000 nM.
As to `O=c1oc(-c2ccsc2)nn1Cc1ccc(-c2nnc(C(F)F)o2)cn1` [Compound 16, 3-[[5-[5-(difluoromethyl)-1,3,4-oxadiazol-2-yl]-2-pyridyl]methyl]-5-(3-thienyl)-1,3,4-oxadiazol-2-one], on human recombinant HDAC6, the “HDAC6 selectivity (fold)” value came out at 551 fold and the 50% inhibitory concentration (IC50) stood at 90.8 nM. On human recombinant HDAC1, the IC50 is greater than 50000 nM.
On to `O=c1oc(-c2ccc3cccnc3c2)nn1Cc1ccc(-c2nnc(C(F)F)o2)cn1` [Compound 17, 3-[[5-[5-(difluoromethyl)-1,3,4-oxadiazol-2-yl]-2-pyridyl]methyl]-5-(7-quinolyl)-1,3,4-oxadiazol-2-one], for which, at human recombinant HDAC6, the “HDAC6 selectivity (fold)” value was 1089 fold and the half-maximal inhibitory concentration (IC50) was 45.9 nM. Moreover, on human recombinant HDAC1, the IC50 was greater than 50000 nM.
`O=c1oc(-c2ccc3scnc3c2)nn1Cc1ccc(-c2nnc(C(F)F)o2)cn1` [Compound 18, 5-(1,3-benzothiazol-5-yl)-3-[[5-[5-(difluoromethyl)-1,3,4-oxadiazol-2-yl]-2-pyridyl]methyl]-1,3,4-oxadiazol-2-one]: on human recombinant HDAC6, the “HDAC6 selectivity (fold)” value was found to be 768 fold and the concentration for half-maximal inhibition (IC50) was found to be 65.1 nM. In addition, at human recombinant HDAC1, the half-inhibitory concentration (IC50) is greater than 50000 nM.
Take `Cn1ccc2cc(-c3nn(Cc4ccc(-c5nnc(C(F)F)o5)cn4)c(=O)o3)ccc21` [Compound 19]: on human recombinant HDAC6, the “HDAC6 selectivity (fold)” value is reported as 1511 fold and the IC50 was 33.1 nM. The IC50 on human recombinant HDAC1 was greater than 50000 nM.
